Experiments:
[1] = biological target: Monoamine oxidase A (MAO-A) (Homo sapiens, UniProt P21397); test: Inhibition of Monoamine Oxidase MAO-A at 10.0 µM in the Eurofins-Panlabs selectivity screen; settings: compound concentration 10 uM
[2] = biological target: Growth hormone secretagogue receptor type 1 (Homo sapiens) (UniProt Q92847); test: Inhibition of Growth Hormone Secretagogue (GHS, Ghrelin) at 10.0 µM in the Eurofins-Panlabs selectivity screen; settings: Compound concentration 10.0 uM
[3] = biological target: B1 bradykinin receptor (Homo sapiens) (UniProt P46663); test: Inhibition of Bradykinin B1 at 10.0 µM in the Eurofins-Panlabs selectivity screen; settings: Compound concentration 10.0 uM
Sequence of B1 bradykinin receptor (Homo sapiens) (P46663 whole entry): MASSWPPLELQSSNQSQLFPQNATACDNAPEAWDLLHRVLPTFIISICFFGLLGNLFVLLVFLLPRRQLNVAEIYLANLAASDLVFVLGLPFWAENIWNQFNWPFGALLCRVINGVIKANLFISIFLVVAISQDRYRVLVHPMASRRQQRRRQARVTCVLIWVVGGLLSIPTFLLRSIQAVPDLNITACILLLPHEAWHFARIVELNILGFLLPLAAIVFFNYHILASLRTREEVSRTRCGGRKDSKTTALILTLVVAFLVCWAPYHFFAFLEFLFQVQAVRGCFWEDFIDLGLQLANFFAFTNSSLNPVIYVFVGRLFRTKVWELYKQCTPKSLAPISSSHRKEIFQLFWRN

[4] = biological target: Estrogen receptor (Homo sapiens) (UniProt P03372); test: Inhibition of Estrogen ERalpha at 10.0 µM in the Eurofins-Panlabs selectivity screen; settings: Compound concentration 10.0 uM
[5] = biological target: Polyunsaturated fatty acid lipoxygenase ALOX15 (Homo sapiens) (UniProt P16050); test: Inhibition of Lipoxygenase 15-LO at 10.0 µM in the Eurofins-Panlabs selectivity screen; settings: Compound concentration 10.0 uM
[6] = biological target: Muscarinic acetylcholine receptor M1 (Homo sapiens) (UniProt P11229); test: Inhibition of Muscarinic M1 at 10.0 µM in the Eurofins-Panlabs selectivity screen; settings: Compound concentration 10.0 uM
[7] = biological target: T1, Glutamate NMDA receptor (Rattus norvegicus) (UniProt P35439+Q00959+Q00960+Q00961+Q62645+Q8VHN2+Q9R1M7); test: Inhibition of Glutamate, NMDA, Agonism at 10.0 µM in the Eurofins-Panlabs selectivity screen; assay type: protein-complex assay; settings: Compound concentration 10.0 uM
[8] = biological target: Neuronal acetylcholine receptor; alpha3/beta4 (Homo sapiens) (UniProt P30926+P32297); test: Inhibition of Nicotinic Acetylcholine alpha3beta4 at 10.0 µM in the Eurofins-Panlabs selectivity screen; assay type: protein-complex assay; settings: Compound concentration 10.0 uM
[9] = biological target: Alpha-2C adrenergic receptor (Homo sapiens) (UniProt P18825); test: Inhibition of Adrenergic alpha2C at 10.0 µM in the Eurofins-Panlabs selectivity screen; settings: Compound concentration 10.0 uM
[10] = biological target: Sodium-dependent dopamine transporter (Homo sapiens) (UniProt Q01959); test: Inhibition of Transporter, Dopamine (DAT) at 10.0 µM in the Eurofins-Panlabs selectivity screen; settings: Compound concentration 10.0 uM
[11] = biological target: Mucosa-associated lymphoid tissue lymphoma translocation protein 1 (Homo sapiens, UniProt Q9UDY8); test: IC50 of MALT1 at 1.0 µM in the Bayer in-house protease panel
[12] = biological target: Delta-type opioid receptor (Homo sapiens) (UniProt P41143); test: Inhibition of Opiate delta1 (OP1, DOP) at 10.0 µM in the Eurofins-Panlabs selectivity screen; settings: Compound concentration 10.0 uM
Sequence of Delta-type opioid receptor (Homo sapiens) (P41143 whole entry): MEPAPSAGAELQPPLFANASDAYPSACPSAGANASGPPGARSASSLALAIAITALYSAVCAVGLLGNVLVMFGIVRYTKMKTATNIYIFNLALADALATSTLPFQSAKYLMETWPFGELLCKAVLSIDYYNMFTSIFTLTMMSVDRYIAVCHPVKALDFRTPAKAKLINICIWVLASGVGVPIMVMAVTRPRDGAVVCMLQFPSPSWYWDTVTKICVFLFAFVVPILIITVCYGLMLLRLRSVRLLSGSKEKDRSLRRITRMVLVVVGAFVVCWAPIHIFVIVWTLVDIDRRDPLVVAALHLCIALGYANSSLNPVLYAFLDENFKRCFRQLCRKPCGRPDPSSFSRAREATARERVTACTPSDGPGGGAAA

[13] = biological target: D(2) dopamine receptor (Homo sapiens) (UniProt P14416); test: Inhibition of Dopamine D2L at 10.0 µM in the Eurofins-Panlabs selectivity screen; settings: Compound concentration 10.0 uM
Sequence of D(2) dopamine receptor (Homo sapiens) (P14416 whole entry): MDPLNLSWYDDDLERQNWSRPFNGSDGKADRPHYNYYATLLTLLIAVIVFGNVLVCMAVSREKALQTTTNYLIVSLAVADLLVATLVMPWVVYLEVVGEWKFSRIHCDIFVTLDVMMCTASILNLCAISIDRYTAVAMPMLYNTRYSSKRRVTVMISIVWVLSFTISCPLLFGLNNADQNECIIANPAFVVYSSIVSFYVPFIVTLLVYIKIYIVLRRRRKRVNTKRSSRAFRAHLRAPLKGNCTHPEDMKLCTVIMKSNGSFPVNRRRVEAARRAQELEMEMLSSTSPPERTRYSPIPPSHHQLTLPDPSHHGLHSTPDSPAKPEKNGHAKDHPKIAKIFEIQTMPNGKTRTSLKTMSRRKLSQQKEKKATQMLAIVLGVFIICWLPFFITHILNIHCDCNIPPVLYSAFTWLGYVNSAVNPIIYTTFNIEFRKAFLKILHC

[14] = biological target: Cannabinoid receptor 1 (Homo sapiens) (UniProt P21554); test: Inhibition of Cannabinoid CB1 at 10.0 µM in the Eurofins-Panlabs selectivity screen; settings: Compound concentration 10.0 uM
[15] = biological target: 72 kDa type IV collagenase (Homo sapiens, UniProt P08253); test: IC50 of hMMP2 at 1.0 µM in the Bayer in-house protease panel
Sequence of 72 kDa type IV collagenase (P08253 whole entry): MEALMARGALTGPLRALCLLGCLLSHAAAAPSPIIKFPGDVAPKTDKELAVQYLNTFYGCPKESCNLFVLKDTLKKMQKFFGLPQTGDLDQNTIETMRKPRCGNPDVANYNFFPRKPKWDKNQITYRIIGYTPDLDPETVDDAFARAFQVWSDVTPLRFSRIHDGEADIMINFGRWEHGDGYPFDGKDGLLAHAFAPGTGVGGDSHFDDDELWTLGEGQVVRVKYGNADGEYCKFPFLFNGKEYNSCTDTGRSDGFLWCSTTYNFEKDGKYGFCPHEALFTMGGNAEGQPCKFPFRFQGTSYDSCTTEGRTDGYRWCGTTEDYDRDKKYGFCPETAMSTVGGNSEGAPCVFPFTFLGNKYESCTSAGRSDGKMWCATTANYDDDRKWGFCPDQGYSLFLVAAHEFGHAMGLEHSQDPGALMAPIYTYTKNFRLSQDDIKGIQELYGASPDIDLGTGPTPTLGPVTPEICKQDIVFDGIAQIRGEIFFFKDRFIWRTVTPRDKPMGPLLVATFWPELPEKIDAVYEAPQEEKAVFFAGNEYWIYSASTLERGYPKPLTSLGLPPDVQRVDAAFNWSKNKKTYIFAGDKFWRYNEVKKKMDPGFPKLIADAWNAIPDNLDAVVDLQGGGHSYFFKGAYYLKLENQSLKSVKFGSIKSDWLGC

[16] = biological target: Muscarinic acetylcholine receptor M3 (Homo sapiens) (UniProt P20309); test: Inhibition of Muscarinic M3 at 10.0 µM in the Eurofins-Panlabs selectivity screen; settings: Compound concentration 10.0 uM
Sequence of Muscarinic acetylcholine receptor M3 (Homo sapiens) (P20309 whole entry, looked up): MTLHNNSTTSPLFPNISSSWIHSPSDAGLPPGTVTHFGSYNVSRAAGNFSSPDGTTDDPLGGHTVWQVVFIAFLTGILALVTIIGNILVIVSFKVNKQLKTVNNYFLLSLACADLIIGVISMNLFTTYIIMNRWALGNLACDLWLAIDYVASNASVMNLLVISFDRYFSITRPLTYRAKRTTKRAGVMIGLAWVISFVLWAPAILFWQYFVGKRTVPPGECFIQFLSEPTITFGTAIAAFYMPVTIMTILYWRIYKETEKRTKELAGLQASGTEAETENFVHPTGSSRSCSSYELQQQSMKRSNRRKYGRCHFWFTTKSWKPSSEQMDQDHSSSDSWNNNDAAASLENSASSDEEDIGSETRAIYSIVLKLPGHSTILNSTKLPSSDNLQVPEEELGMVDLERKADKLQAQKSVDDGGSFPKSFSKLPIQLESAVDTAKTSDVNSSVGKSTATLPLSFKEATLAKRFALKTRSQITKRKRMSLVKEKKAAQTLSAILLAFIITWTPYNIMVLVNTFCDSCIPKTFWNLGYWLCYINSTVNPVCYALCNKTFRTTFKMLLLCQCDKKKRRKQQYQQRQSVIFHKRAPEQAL

[17] = biological target: 3',5'-cyclic-AMP phosphodiesterase 4D (Homo sapiens) (UniProt Q08499); test: Inhibition of Phosphodiesterase PDE4D2 at 10.0 µM in the Eurofins-Panlabs selectivity screen; settings: Compound concentration 10.0 uM
[18] = biological target: Muscarinic acetylcholine receptor M4 (Homo sapiens) (UniProt P08173); test: Inhibition of Muscarinic M4 at 10.0 µM in the Eurofins-Panlabs selectivity screen; settings: Compound concentration 10.0 uM
[19] = biological target: Alpha-2A adrenergic receptor (Homo sapiens) (UniProt P08913); test: Inhibition of Adrenergic alpha2A at 10.0 µM in the Eurofins-Panlabs selectivity screen; settings: Compound concentration 10.0 uM
Sequence of Alpha-2A adrenergic receptor (Homo sapiens) (P08913 whole entry): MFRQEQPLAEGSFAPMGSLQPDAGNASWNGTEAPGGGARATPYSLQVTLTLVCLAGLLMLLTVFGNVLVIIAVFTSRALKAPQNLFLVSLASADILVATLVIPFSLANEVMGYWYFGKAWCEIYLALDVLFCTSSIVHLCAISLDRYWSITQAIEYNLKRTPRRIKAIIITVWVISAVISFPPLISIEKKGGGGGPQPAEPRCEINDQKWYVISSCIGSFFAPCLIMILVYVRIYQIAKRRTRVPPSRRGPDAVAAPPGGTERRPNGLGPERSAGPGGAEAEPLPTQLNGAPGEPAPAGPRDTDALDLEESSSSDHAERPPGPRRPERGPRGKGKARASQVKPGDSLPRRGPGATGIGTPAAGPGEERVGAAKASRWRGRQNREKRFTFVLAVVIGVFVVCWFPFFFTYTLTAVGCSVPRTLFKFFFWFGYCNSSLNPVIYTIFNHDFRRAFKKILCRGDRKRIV

[20] = biological target: Sodium/potassium-transporting ATPase (Sus scrofa) (UniProt P05027+P05024+D2WKD8+D2WKD7+F1ST41); test: Inhibition of ATPase, Na+/K+, Heart, Pig at 10.0 µM in the Eurofins-Panlabs selectivity screen; assay type: protein-complex assay; settings: Compound concentration 10.0 uM
[21] = biological target: Aldo-keto reductase family 1 member B1 (Homo sapiens) (UniProt P15121); test: Inhibition of Aldose Reductase at 10.0 µM in the Eurofins-Panlabs selectivity screen; settings: Rattus norvegicus; Compound concentration 10.0 uM
Cathepsin S = Cathepsin S (Homo sapiens, UniProt P25774); test: IC50 of Cathepsin S at 1.0 µM in the Bayer in-house protease panel
[22] = biological target: Nitric oxide synthase, inducible (Homo sapiens) (UniProt P35228); test: Inhibition of Nitric Oxide Synthetase, Inducible (iNOS) at 10.0 µM in the Eurofins-Panlabs selectivity screen; settings: Mus musculus; Compound concentration 10.0 uM
[23] = biological target: Sodium-dependent serotonin transporter (Homo sapiens) (UniProt P31645); test: Inhibition of Transporter, Serotonin (5-Hydroxytryptamine) (SERT) at 10.0 µM in the Eurofins-Panlabs selectivity screen; settings: Compound concentration 10.0 uM
[24] = biological target: Phosphodiesterase 3 (Homo sapiens) (UniProt Q14432+Q13370); test: Inhibition of Phosphodiesterase PDE3 at 10.0 µM in the Eurofins-Panlabs selectivity screen; assay type: protein assay; settings: Compound concentration 10.0 uM
[25] = biological target: Matrix metalloproteinase-14 (Homo sapiens, UniProt P50281); test: IC50 of hMMP14 at 1.0 µM in the Bayer in-house protease panel
[26] = biological target: 3-hydroxy-3-methylglutaryl-coenzyme A reductase (Homo sapiens) (UniProt P04035); test: Inhibition of HMG-CoA Reductase at 10.0 µM in the Eurofins-Panlabs selectivity screen; settings: Compound concentration 10.0 uM
Cathepsin B = Cathepsin B (Homo sapiens, UniProt P07858); test: IC50 of Cathepsin B at 1.0 µM in the Bayer in-house protease panel
[27] = biological target: GABA-A receptor; anion channel (Rattus norvegicus) (UniProt O09028+P15431+P18506+P18508+P19969+P20236+P23574+P23576+P28471+P28473+P30191+P62813+P63079+P63138+Q91ZM7+Q9ES14); test: Inhibition of GABAA, Chloride Channel, TBOB at 10.0 µM in the Eurofins-Panlabs selectivity screen; assay type: protein-complex assay; settings: Compound concentration 10.0 uM
[28] = biological target: T1, Glutamate NMDA receptor (Rattus norvegicus); test: Inhibition of Glutamate, NMDA, Glycine at 10.0 µM in the Eurofins-Panlabs selectivity screen; assay type: protein-complex assay; settings: Compound concentration 10.0 uM
[29] = biological target: Beta-3 adrenergic receptor (Homo sapiens) (UniProt P13945); test: Inhibition of Adrenergic beta3 at 10.0 µM in the Eurofins-Panlabs selectivity screen; settings: Compound concentration 10.0 uM
Sequence of Beta-3 adrenergic receptor (Homo sapiens) (P13945 whole entry, looked up): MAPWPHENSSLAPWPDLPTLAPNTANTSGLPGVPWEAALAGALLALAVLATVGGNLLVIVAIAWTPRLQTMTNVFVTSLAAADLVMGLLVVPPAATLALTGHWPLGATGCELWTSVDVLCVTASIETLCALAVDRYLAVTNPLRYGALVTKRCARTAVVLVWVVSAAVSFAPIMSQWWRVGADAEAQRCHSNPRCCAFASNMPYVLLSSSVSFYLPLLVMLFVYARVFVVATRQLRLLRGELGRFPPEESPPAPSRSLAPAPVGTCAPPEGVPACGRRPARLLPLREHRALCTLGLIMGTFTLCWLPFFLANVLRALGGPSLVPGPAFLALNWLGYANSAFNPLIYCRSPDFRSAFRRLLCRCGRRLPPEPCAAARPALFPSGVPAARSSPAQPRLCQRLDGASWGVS

[30] = biological target: Vasopressin V1a receptor (Homo sapiens) (UniProt P37288); test: Inhibition of Vasopressin V1A at 10.0 µM in the Eurofins-Panlabs selectivity screen; settings: Compound concentration 10.0 uM
Sequence of Vasopressin V1a receptor (Homo sapiens) (P37288 whole entry, looked up): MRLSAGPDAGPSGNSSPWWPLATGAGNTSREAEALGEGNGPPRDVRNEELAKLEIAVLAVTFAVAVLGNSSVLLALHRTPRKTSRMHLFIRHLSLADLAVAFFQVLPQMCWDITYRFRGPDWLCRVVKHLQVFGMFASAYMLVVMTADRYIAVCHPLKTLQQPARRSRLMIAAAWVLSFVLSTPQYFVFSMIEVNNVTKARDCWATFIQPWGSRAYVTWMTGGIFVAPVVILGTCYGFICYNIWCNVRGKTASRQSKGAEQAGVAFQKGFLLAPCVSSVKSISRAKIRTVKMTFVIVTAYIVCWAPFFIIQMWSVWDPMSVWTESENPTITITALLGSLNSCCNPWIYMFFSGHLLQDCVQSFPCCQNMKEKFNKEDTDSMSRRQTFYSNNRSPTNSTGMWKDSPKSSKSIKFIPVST

[31] = biological target: Type-2 angiotensin II receptor (Homo sapiens) (UniProt P50052); test: Inhibition of Angiotensin AT2 at 10.0 µM in the Eurofins-Panlabs selectivity screen; settings: Compound concentration 10.0 uM
Sequence of Type-2 angiotensin II receptor (Homo sapiens) (P50052 whole entry): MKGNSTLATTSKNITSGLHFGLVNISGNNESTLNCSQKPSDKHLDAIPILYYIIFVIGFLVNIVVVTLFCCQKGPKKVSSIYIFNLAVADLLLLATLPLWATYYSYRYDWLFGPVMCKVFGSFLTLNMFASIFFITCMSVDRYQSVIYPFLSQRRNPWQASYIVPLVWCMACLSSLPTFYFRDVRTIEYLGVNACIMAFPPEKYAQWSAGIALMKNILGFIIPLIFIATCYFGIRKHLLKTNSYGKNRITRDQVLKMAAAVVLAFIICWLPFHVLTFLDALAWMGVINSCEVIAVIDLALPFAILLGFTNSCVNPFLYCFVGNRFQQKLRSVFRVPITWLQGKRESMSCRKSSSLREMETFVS

[32] = biological target: Acetylcholinesterase (Homo sapiens) (UniProt P22303); test: Inhibition of Cholinesterase, Acetyl, ACES at 10.0 µM in the Eurofins-Panlabs selectivity screen; settings: Compound concentration 10.0 uM

Sequence of Growth hormone secretagogue receptor type 1 (Homo sapiens) (Q92847 whole entry): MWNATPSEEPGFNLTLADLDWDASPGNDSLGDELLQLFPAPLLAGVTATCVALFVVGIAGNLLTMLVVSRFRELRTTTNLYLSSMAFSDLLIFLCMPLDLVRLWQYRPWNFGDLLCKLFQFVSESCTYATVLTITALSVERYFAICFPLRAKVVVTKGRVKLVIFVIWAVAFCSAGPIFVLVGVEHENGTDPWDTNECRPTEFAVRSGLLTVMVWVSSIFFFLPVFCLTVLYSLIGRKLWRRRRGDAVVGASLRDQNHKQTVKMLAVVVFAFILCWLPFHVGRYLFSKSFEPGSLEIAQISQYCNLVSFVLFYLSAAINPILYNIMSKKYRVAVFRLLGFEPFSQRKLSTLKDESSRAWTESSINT
Sequence of Monoamine oxidase A (MAO-A) (P21397 whole entry): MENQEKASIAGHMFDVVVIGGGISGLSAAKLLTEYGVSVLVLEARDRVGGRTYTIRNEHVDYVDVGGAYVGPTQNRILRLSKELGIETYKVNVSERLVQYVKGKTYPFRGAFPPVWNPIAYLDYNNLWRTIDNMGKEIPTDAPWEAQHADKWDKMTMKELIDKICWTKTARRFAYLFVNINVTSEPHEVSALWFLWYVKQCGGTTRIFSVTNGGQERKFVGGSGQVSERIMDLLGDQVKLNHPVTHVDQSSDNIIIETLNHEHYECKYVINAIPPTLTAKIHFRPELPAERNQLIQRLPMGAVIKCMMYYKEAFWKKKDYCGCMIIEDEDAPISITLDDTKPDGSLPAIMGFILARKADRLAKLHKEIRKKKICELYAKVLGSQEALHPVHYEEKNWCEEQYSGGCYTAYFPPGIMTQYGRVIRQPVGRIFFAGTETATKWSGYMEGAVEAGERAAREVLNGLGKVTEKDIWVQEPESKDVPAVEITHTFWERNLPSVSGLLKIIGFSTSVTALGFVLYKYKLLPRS

Cn1nccc1[C@]1(CNC(=O)c2ccc(F)c(F)c2-c2ccc(C(F)(F)F)cc2)NC(=O)NC1=O
inhibition at 10 µM [1]: 0%
inhibition [2]: 6%
inhibition [3]: 1%
inhibition [4]: 13%
inhibition [5]: -6%
inhibition [6]: -6%
inhibition [7]: 1%
inhibition [8]: 2%
inhibition [9]: -1%
inhibition [10]: 7%
IC50 [11]: > 100 µM
inhibition [12]: 18%
inhibition [13]: 2%
inhibition [14]: -3%
IC50 [15]: > 100 µM
inhibition [16]: 9%
inhibition [17]: 3%
inhibition [18]: -6%
inhibition [19]: -3%
inhibition [20]: -5%
inhibition [21]: -4%
IC50 (Cathepsin S): > 100 µM
inhibition [22]: 0%
inhibition [23]: 10%
inhibition [24]: 11%
IC50 [25]: > 100 µM
inhibition [26]: -5%
IC50 (Cathepsin B): > 100 µM
inhibition [27]: 0%
inhibition [28]: -4%
inhibition [29]: -3%
inhibition [30]: 7%
inhibition [31]: 0%
inhibition [32]: 3%
